Results reported in patent US6916802B2, “Amino ceramide-like compounds and therapeutic methods of use” (Genzyme Corporation, priority 2002, dated 2005).
Where “and” joins values, the source holds several entries; their conditions need not be identical. Identical values can stand only once. Marks after values point to notes of the source that are not given here. One block for each compound: values may come before it.

How the values were obtained:
[1] = test system: 9L brain gliosarcoma cells; test: Tumor cell growth in vitro (sulforhodamine B), 9L; assay type: cell-based; conditions: for IC50: 9L, rounded off to one digit, read-out: Inhibition of tumor cell growth in vitro, IC50
Procedure: (§1) Growth of cell lines. Comparisons of different inhibitors with regard to suppression of human cancer cell growth were made by the University of Michigan Cancer Center in vitro Drug Evaluation Core Laboratory. MCF-7 breast carcinoma cells, HT-29 colon adenocarcinoma cells, H-460 lung large cell carcinoma cells, and 9L brain gliosarcoma cells were grown in RPMI 1640 medium with 5% fetal bovine serum, 2 mM glutamine, 50 units/ml of penicillin, […] of streptomycin, and 0.1 mg/ml of neomycin. UMSCC-10A head and neck squamous carcinoma cells were grown in minimal essential medium with Earle salts and the same supplements. Medium components were from Sigma Chemical Co. Cells were plated in 96-well microtiter plates (1000 cells/well for H-460 and 9L cells, and 2000 cells/well for the other lines), and the test compounds were added 1 day later. The stock inhibitor solutions, 2 mM in 2 mM BSA, were diluted with different amounts of additional 2 mM BSA, then each solution was diluted 500-fold with growth medium to obtain the final concentrations indicated in the Figures and Tables.
(§2) Five days after plating the H-460 and 9L cells, or 6 days for the other lines, cell growth was evaluated by staining the adhering cells with sulforhodamine B and measuring the absorbance at 520 nm (Skehan, P. et al., “New Colorimetric Cytotoxicity Assay for Anticancer-Drug Screening,” J. Natl. Cancer Inst., 82:1107-1112 (1990)). The absorbance of the treated cultures is reported as percent of that of control cultures, to provide an estimate of the fraction of the cells that survived, or of inhibition of growth rate.

[2] = test system: MCF-7 breast carcinoma cells; test: Tumor cell growth in vitro (sulforhodamine B), MCF-7; assay type: cell-based, human; conditions: rounded off to one digit, read-out: Inhibition of tumor cell growth in vitro, IC50
Procedure: as §1, §2

[3] = test system: HT-29 colon adenocarcinoma cells; test: Tumor cell growth in vitro (sulforhodamine B), HT-29; assay type: cell-based, human; conditions: rounded off to one digit, read-out: Inhibition of tumor cell growth in vitro, IC50
Procedure: as §1, §2

[4] = test system: H-460 lung large cell carcinoma cells; test: Tumor cell growth in vitro (sulforhodamine B), H-460; assay type: cell-based, human; conditions: rounded off to one digit, read-out: Inhibition of tumor cell growth in vitro, IC50
Procedure: as §1, §2

[5] = test system: GlcCer synthase of MDCK cell homogenates; test: Inhibition of ceramide glucosyltransferase (GlcCer synthase) of MDCK cell homogenates; assay type: biochemical, canine; conditions: for Inhibition at 5 μM: 5 μM inhibitor; for Inhibition at 5 μM / % Inhibition at 80 μM: triplicate ± SD, samples partly isomer mixtures; for % Inhibition at 80 μM: 80 μM inhibitor
Procedure: Assay of sphingolipid enzymes. The inhibitors were evaluated for their effectiveness against the GlcCer synthase of MDCK cell homogenates by incubation in a thermostatted ultrasonic bath (Radin N. S. et al., “Ultrasonic Baths as Substitutes for Shaking Incubator Baths,” Enzyme, 45:67-70 (1991)) with octanoyl sphingosine and uridinediphospho[^3H]glucose (Shukla, G. S. et al., “Glucosylceramide Synthase of Mouse Kidney: Further Characterization and Improved Assay Method,” Arch. Biochem. Biophys., 283:372-378 (1990)). The lipoidal substrate (85 μg) was added in liposomes made from 0.57 mg dioleoylphosphatidylcholine and 0.1 mg of Na sulfatide. Confluent cells were washed, then homogenized with a micro-tip sonicator at 0° C. for 3×30 sec; ˜0.2 mg of protein was used in each assay tube. In the case of the aromatic inhibitors, the test compound was simply evaporated to dryness from solution in the incubation tube. […] The aliphatic inhibitors, which appeared to be less soluble in water, were added as part of the substrate liposomes.

[6] = substituent of phenyl group; estimated from the Table in Hogberg et al.; cited from earlier work
[7] = test system: Ceramide synthase; test: Ceramide synthase of MDCK homogenate; assay type: biochemical, canine
Procedure: Ceramide synthase was assayed with 1 μM [3-^3H]sphingosine (70,000 cpm, repurified by column chromatography), 0.2 mM stearoyl-CoA, 0.5 mM dithiothreitol, and ˜300 μg of MDCK homogenate protein in 25 mM phosphate-K^+ buffer, pH 7.4, in a total volume of 0.2 ml. The incubation (for 30 min) and TLC were carried out as above and the ceramide band was counted.

[8] = test system: MDCK cells; test: MDCK cell growth (cellular protein per dish); assay type: cell-based, canine
Procedure: For the experiments with labeled thymidine, each 8.5 cm dish contained 500,000 Madin-Darby canine kidney (MDCK) cells in 8 ml of Dulbecco modified essential supplemented medium. […] The control cells were also incubated in the presence of BSA. The cells were washed with phosphate/saline and trichloroacetic acid, then scraped off the dishes, dissolved in alkali, and analyzed for protein and DNA incorporated tritium. [Methyl-^3H]thymidine (10 μCi) was added 4 h prior to harvesting.

[9] = test system: MDCK cells; test: Lipid changes in MDCK cells (GlcCer, ceramide, diacylglycerol); assay type: cell-based, canine
[10] = test system: neutral ceramidase; test: Neutral ceramidase of MDCK cell homogenate; assay type: biochemical, canine
Procedure: (§3) Acid and neutral ceramidases were assayed under conditions like those above, but the medium contained 110 μM [1-^14C]decanoyl sphingosine (10^5 cpm) in 340 μM dioleoylphosphatidylcholine liposomes and 0.34 mg of MDCK cellular protein homogenate. […] After 60 min in the ultrasonic bath, 3 ml of C-M 2:1, carrier decanoic acid, and 0.6 ml of 0.9% saline were added and the lipids in the lower layer were separated by TLC with C-HOAc 9:1. The liberated decanoic acid was scraped off the glass plate and counted.

[11] = test system: Neutral sphingomyelinase (SMase); test: Neutral sphingomyelinase of MDCK cells; assay type: biochemical, canine
Procedure: Acid and neutral SMase assays were based on the procedures of Gatt et al. (Gatt, S. et al., “Assay of Enzymes of Lipid Metabolism With Colored and Fluorescent Derivatives of Natural Lipids,” Meth. Enzymol., 72:351-375 (1981)), using liposomes containing NBD-SM dispersed like the labeled ceramide (10 μM substrate and 30 μM lecithin). […] Incubation was at 37° C. for 30 min in the ultrasonic bath, then the fluorescent product, NBD-ceramide, was isolated by partitioning the assay mixture with 0.45 ml 2-propanol, 1.5 ml heptane, and 0.2 ml water. After centrifugation, a trace of contaminating NBD-SM was removed from 0.9 ml of the upper layer by washing with 0.35 ml water. The upper layer was analyzed with a fluorometer (460 nm excitation, 515 nm emission).

[12] = test system: Acid SMase; test: Acid sphingomyelinase of MDCK cells; assay type: biochemical, canine
Procedure: Acid and neutral SMase assays were based on the procedures of Gatt et al. (Gatt, S. et al., “Assay of Enzymes of Lipid Metabolism With Colored and Fluorescent Derivatives of Natural Lipids,” Meth. Enzymol., 72:351-375 (1981)), using liposomes containing NBD-SM dispersed like the labeled ceramide (10 μM substrate and 30 μM lecithin). The assay medium for the neutral enzyme also contained 50 mM Tris-Cl^− (pH 7.4), 25 mM KCl, 5 mM MgCl2 and 0.29 mg of MDCK cell protein in a total volume of 0.25 ml. Incubation was at 37° C. for 30 min in the ultrasonic bath, then the fluorescent product, NBD-ceramide, was isolated by partitioning the assay mixture with 0.45 ml 2-propanol, 1.5 ml heptane, and 0.2 ml water. After centrifugation, a trace of contaminating NBD-SM was removed from 0.9 ml of the upper layer by washing with 0.35 ml water. The upper layer was analyzed with a fluorometer (460 nm excitation, 515 nm emission).
[…] The resultant ceramide was determined as above.

[13] = test system: acid ceramidase; test: Acid ceramidase of MDCK cell homogenate; assay type: biochemical, canine
Procedure: as §3

[14] = test system: three of the tumor cell lines; test: Growth tests of chemotherapeutic agents in the Drug Evaluation Core Laboratory; assay type: cell-based; conditions: range over three of the tumor cell lines
Procedure: as §1, §2

SMILES: CCCCCCCCCCCCCCCC(=O)N[C@H](CN1CCCC1)[C@H](O)c1ccc(OC)cc1 [D-threo-p-methoxy-P4]
σ + π [6]: −0.29

SMILES: CCCCCCCCCCCCCC=CC(O)C(CN1CCCC1)NC(=O)CCCCCCCCCCCCCCC [IV-231B, D-threo-1-pyrrolidino-1-deoxyceramide]
Ceramide Synthase, enzyme activity (% of control) ([7]; 5 μM): 90 ± 8 % of control | Ceramide Synthase, enzyme activity (% of control) ([7]; 50 μM): 71 ± 18^a % of control | effect on MDCK cell growth ([8]; 20 μM for 1 day or 1 μM for 3 days): no inhibitory effect | effect on MDCK cell growth ([8]; 5 days in 5 μM inhibitor): no slowing of growth | protein per dish ([8]; 5 days in 5 μM inhibitor, BSA complex): 3.30 ± 0.04 mg | GlcCer in cells (TLC) ([9]; 1 μM for 3 days): virtually no GlcCer was visible | GlcCer in cells (TLC) ([9]; 0.02 to 1 μM for 3 days): great depletion of GlcCer | ceramide accumulation (TLC) ([9]; 0.02 to 1 μM for 3 days): no ceramide accumulation | all the GSLs in cells (TLC) ([9]; 5 days in 5 μM inhibitor): virtually undetectable | ceramide concentration ([9]; depleted cells, 5 days in 5 μM inhibitor): 13.9±0.2 μg/mg protein | Ceramidase pH 7.4, enzyme activity (% of control) ([10]; 5 μM): 116 ± 20 % of control | Ceramidase pH 7.4, enzyme activity (% of control) ([10]; 50 μM): 112 ± 3 % of control | degree of inhibition of GlcCer synthase ([5]; 3 μM, inhibitor incorporated into the substrate liposomes): 77±0.9% | Inhibition at 5 μM [5]: 87 ± 0.4^g % | Sphingomyelinase pH 7.1, enzyme activity (% of control) ([11]; 5 μM): 131 ± 3^b % of control | Sphingomyelinase pH 7.1, enzyme activity (% of control) ([11]; 50 μM): 120 ± 3^b % of control | Sphingomyelinase pH 4.5, enzyme activity (% of control) ([12]; 5 μM): 101 ± 7 % of control | Sphingomyelinase pH 4.5, enzyme activity (% of control) ([12]; 50 μM): 112 ± 11 % of control | Ceramidase pH 4.5, enzyme activity (% of control) ([13]; 5 μM): 106 ± 3 % of control | Ceramidase pH 4.5, enzyme activity (% of control) ([13]; 50 μM): 113 ± 8 % of control

SMILES: CCCCCCCCCC(=O)N[C@H](CN1CCOCC1)[C@H](O)c1ccccc1 [PDMP, 1R-phenyl-2R-decanoylamino-3-morpholino-1-propanol, reference compound]
Ceramide Synthase, enzyme activity (% of control) ([7]; 5 μM): 99 ± 5 % of control | Ceramide Synthase, enzyme activity (% of control) ([7]; 50 μM): 66 ± 9^a % of control | effectiveness on growth and survival of 9L cells, in words ([1]; FIG. 1): even weaker effectiveness | Ceramidase pH 7.4, enzyme activity (% of control) ([10]; 5 μM): 116 ± 19 % of control | Ceramidase pH 7.4, enzyme activity (% of control) ([10]; 50 μM): 105 ± 11 % of control | Inhibition at 5 μM [5]: 16 ± 1.8^f % | % Inhibition at 80 μM [5]: 90 ± 0.8^a % | Sphingomyelinase pH 7.1, enzyme activity (% of control) ([11]; 5 μM): 121 ± 13 % of control | Sphingomyelinase pH 7.1, enzyme activity (% of control) ([11]; 50 μM): 108 ± 8 % of control | Sphingomyelinase pH 4.5, enzyme activity (% of control) ([12]; 5 μM): 102 ± 3 % of control | Sphingomyelinase pH 4.5, enzyme activity (% of control) ([12]; 50 μM): 100 ± 3 % of control | Ceramidase pH 4.5, enzyme activity (% of control) ([13]; 5 μM): 97 ± 4 % of control | Ceramidase pH 4.5, enzyme activity (% of control) ([13]; 50 μM): 133 ± 13^a % of control

SMILES: COc1cc([C@@H]2c3cc4c(cc3[C@@H](O[C@@H]3O[C@@H]5CO[C@@H](C)O[C@H]5[C@H](O)[C@H]3O)[C@H]3COC(=O)[C@H]23)OCO4)cc(OC)c1O [etoposide]
IC50 [14]: 100 to 1000 nM

SMILES: O=c1[nH]cc(F)c(=O)[nH]1 [fluorouracil]
IC50 [14]: 70 to 200 nM

SMILES: CCCCCCCCCCCCCCCC(=O)N[C@H](CN1CCCC1)[C@H](O)c1cccc(OC)c1 [m-methoxy-P4]
σ + π [6]: 0.10

SMILES: CN(Cc1cnc2nc(N)nc(N)c2n1)c1ccc(C(=O)N[C@@H](CCC(=O)O)C(=O)O)cc1 [methotrexate]
IC50 [14]: 30 to 200 nM

SMILES: CCCCCCCCCCCCCCCC(=O)N[C@H](CN1CCCC1)[C@H](O)c1ccc(Cl)cc1 [p-chloro-P4]
σ + π [6]: 0.94

SMILES: CCCCCCCCCCCCCCCC(=O)N[C@H](CN1CCCC1)[C@H](O)c1ccc(C)cc1 [p-methyl-P4]
σ + π [6]: 0.39

Further lines, with some results ahead:

IC50 [1]: 2000 nM | IC50 [2]: 2000 nM | IC50 [3]: 2000 nM | IC50 [4]: 2000 nM
SMILES: CCCCCCCCCCCCCCCC(=O)NC(CN1CCCCC1)C(O)c1ccccc1 (mixture of isomers) [BML-115]
Inhibition at 5 μM [5]: 12.4% | % Inhibition at 80 μM ([5]; 80 µM): 82 ± 0.3^b % and 84 ± 0.8^a % | improvement of activity relative to PPMP ([5]; calculated from inhibitions at 5 μM in Expt. f and relative purities): ~1.4 fold

IC50 [1]: 2000 nM | IC50 [2]: 2000 nM | IC50 [4]: 2000 nM
SMILES: CCCCCCCCCCCCCCCC(=O)NC(CN1CCCCC1)C(O)c1ccc(F)cc1 (mixture of isomers) [BML-118]
Inhibition at 5 μM [5]: 8.3 ± 1.4^f % | % Inhibition at 80 μM [5]: 62 ± 0.4^b %

IC50 [1]: 2000 nM | IC50 [2]: 2000 nM | IC50 [3]: 2000 nM
SMILES: CCCCCCCCCCCCCCCC(=O)NC(CN1CCC1)C(O)c1ccccc1 (mixture of isomers) [BML-123]
Inhibition at 5 μM [5]: 15 ± 0.8^f % | % Inhibition at 80 μM [5]: 86 ± 0.1^d %
